Experimental findings from PubChem BioAssay AID2305 (GlaxoSmithKline (GSK), 2010) are described below.

The test system of this assay is P. falciparum 3D7 growth, pLDH absorbance. Kind of assay: P. falciparum 3D7 growth inhibition, dose response, strain 3D7 (AID 2305).

Values joined by “and” are separate entries in the source; they are usually repeats but may differ in a detail not shown here. Identical values can stand only once.

Turning to `COc1ccc(-c2cnc3ccc(NCc4ccc(F)cc4)nn23)cc1OC`, the half-maximal inhibitory concentration (IC50) (commonly the concentration at which inhibition is half-maximal) is 830 nM.
With `COc1ccc(C(=O)CCC(=O)N(Cc2ccc(-c3ccc(CNCCc4ccc(S(C)(=O)=O)cc4)cn3)cc2)Cc2ccc3c(c2)OCO3)cc1F` the figure was 940 nM; with `O=C1CCCN1CCCNCc1ccc(-c2ccc(-c3nc4ccc(F)cc4[nH]3)s2)cc1`, 900 nM.
With `NC1CCCN(Cc2cccc(-c3ccc(-c4nc5ccc(F)cc5[nH]4)cc3)c2)C1` (configuration not stated) the figure was 570 nM; with `COc1ccc(CNCc2cccc(-c3ccc(-c4nc5c(C)cccc5[nH]4)cc3)c2)cc1`, 240 nM.
With `COC(=O)c1cccc(NC(=O)NCCNc2ccnc(Nc3ccc(F)cc3)n2)c1` the figure was 840 nM; with `CCOc1c(CNCCCNc2cc(=O)c3ccccc3[nH]2)cc(I)cc1OC`, 1170 nM; with `CCOc1ccccc1N1CCN(CCCNC(=O)/C(=C/C=C/c2cc3cc(Cl)c(Cl)cc3[nH]2)OC)CC1`, 850 nM.
`Nc1c(Cl)cc(C(O)CNCCCCCCCCCc2ccccn2)cc1Cl` (configuration not stated) had a 50% inhibitory concentration (IC50) of 860 nM.
As for `CC1(C)N=C(N)N=C(N)N1c1cc(Cl)c(Cl)c(Cl)c1`, the IC50 was determined as 10 nM.
With `Ic1cc(CNC2CCCCC2)ccc1OCc1cccc(COc2ccc(CNC3CCCCC3)cc2I)c1` the figure was 830 nM.
With `CNC(=O)CC(=O)NCCc1ccc(Cl)cc1` the figure was 810 nM; with `Cc1cccc2[nH]c(-c3ccc(-c4ccc(NC(=O)C(C)CN(C)C)cc4)cc3)nc12` (configuration not stated), 680 nM; with `CCCC(=O)c1c(O)c2ccccc2oc1=O`, 260 nM.
With `Cc1onc(-c2ccc(Cl)cc2)c1-c1ccnn1S(=O)(=O)c1ccc(Cl)cc1` the figure was 710 nM.
`COC(=O)/C=C/C(=O)N[C@@H]1CC[C@@]2(O)[C@H]3Cc4ccc(O)c5c4[C@@]2(CCN3CC2CC2)[C@H]1O5` registered an IC50 of 640 nM.
With `CCCCCCN1CCC(NCc2ccc(Cl)cc2)CC1` the figure was 850 nM; with `Cc1c(CCc2cccc(F)c2F)[nH]c2ccccc2c1=O`, 820 nM.
With `COc1cccc2cc(C(=O)N[C@@H](CC(C)C)C(=O)NC(/C=N/NC(=O)c3ccccc3)CCc3ccccc3)oc12` (some centres not stated) the figure was 580 nM; with `CC(C)N1CCC(N(Cc2ccc(-c3ccc(C(F)(F)F)cc3)cc2)C(=O)Cn2c(CCc3cccc(F)c3F)cc(=O)c3c2CCC3)CC1`, 620 nM.
For `O=C(NCCN1CCCCC1)c1ccc(CNC(=O)c2ccc(O)c(-c3ccc(Cl)c(Cl)c3)c2)cc1` the value was 900 nM; for `CCNC(=O)Nc1ccc(-c2ccc(-c3nc4c(C)cccc4[nH]3)s2)cc1`, 1070 nM; for `CCCCNc1c(CC)c(C)c(C#N)c2nc3ccccc3n12`, 380 nM.
On to `COc1cccc(-c2csc(C(=O)NCC3CCN(Cc4ccc(C(C)(C)C)cc4)C3)c2)c1` (configuration not stated), for which the IC50 came out at 1180 nM.
For `COc1ccc(CCOc2c(C)nc(N)nc2N)cc1OC` the value was 70 nM; for `O=C(NC1CCCC1)c1ccc(N2CCC(NCc3cccc(C(F)(F)F)c3)CC2)cc1`, 1330 nM.
With `Oc1ccc2[nH]c(-c3ccc(OC(F)(F)F)cc3)nc2c1CNC1CCCC1` the figure was 1750 nM; with `CCCCCCOc1ccc(C(N)=NCc2ccccc2)c2c1CCCC2`, 1270 nM.
For `COc1ccc(-c2nnc(Sc3ccc(C#N)c([N+](=O)[O-])c3)n2CC(C)C)cc1` the value was 820 nM; for `CN(C)c1ccc(-c2csc(C(=O)NCC3CCN(CCC(C)(C)C)C3)c2)cc1` (configuration not stated), 1500 nM.
`N#Cc1ccc(N2C[C@@H](OCc3ccccc3)C[C@H]2C(=O)NCCC(c2ccccc2)c2ccccc2)c2ccccc12`: the IC50 stood at 860 nM.
With `CN(C)C(CNC(=O)c1cc(-c2ccncc2)c(-c2cc3ccccc3[nH]2)o1)c1ccccc1` (configuration not stated) the figure was 840 nM.
`CC(=O)Oc1c(Cl)c(C)nc(C)c1-c1ccc(Oc2ccc(OC(F)(F)F)cc2)cc1`: the IC50 is 100 nM.
For `O=C(/C=C/c1ccc(C(F)(F)F)cc1)NC1CCC(CN2CCC(c3c[nH]c4ccccc34)CC2)CC1` (configuration not stated) the value was 960 nM and 370 nM.
With `CC(C)(CNCc1ccc(C(F)(F)F)cc1)c1nc(-c2ccc(Cl)c(O)c2)c(-c2ccncc2)[nH]1` the figure was 730 nM; with `CC(C)c1ccc(C=CC(=O)NC2CCC(CN3CCC(c4c[nH]c5ccccc45)CC3)CC2)cc1` (configuration not stated), 810 nM; with `O=C(NCCCCN1CCC(c2ccc3c(c2OCc2ccncc2)CCCC3)CC1)c1ccc(-c2ccc(C(F)(F)F)cc2)cc1`, 170 nM.
With `CCCCn1c(Sc2ccc(C#N)c([N+](=O)[O-])c2)nnc1-c1cc(OC)cc(OC)c1` the figure was 820 nM.
In turn, `CNC(=O)c1cc(NCCCNCc2ccc(Cl)c(C(F)(F)F)c2)nc2ccccc12` registered an IC50 of 930 nM.
With `Cc1cc(N[C@@H](Cc2ccccc2)C(=O)NCCOc2ccccc2)nc(NCCc2ccc(F)cc2)n1` the figure was 600 nM.
The compound `C=C[C@]1(C)C[C@@H](OC(=O)CS[C@H]2CN3CC[C@H]2C3)[C@@]2(C)C3C(=O)CC[C@@]3(CC[C@H]2C)[C@@H](C)[C@@H]1O` (some centres not stated) yielded an IC50 of 690 nM.
With `O=C(Cc1ccccc1)NC1(c2ccccc2)CCN(CCc2c[nH]c3ccc(F)cc23)CC1` the figure was 880 nM; with `O=C(NC1CC1)c1ccc(N2CCC(Cc3ccccc3)CC2)c([N+](=O)[O-])c1`, 610 nM; with `COc1ccc(Cc2c(N)nc3nc(N)nc(N)c3c2C)cc1`, 190 nM.
For `CCC(C)CN1C(=O)C(c2ccccc2)(c2ccccc2)N=C1N` (configuration not stated) the value was 710 nM; for `CC(C)(C)C1CCc2onc(C(=O)Nc3cc(Cl)ccc3O)c2C1` (configuration not stated), 780 nM.
With `OC(CNCc1ccccc1OCc1ccccc1)c1cccc(Cl)c1` (configuration not stated) the figure was 220 nM; with `Cc1ccc(-c2nnc(Nc3ccc(C(=O)N4CCCCC4)cc3)c3ccccc23)cc1S(=O)(=O)NCC1CCCO1` (configuration not stated), 710 nM; with `Cc1cc(C(F)(F)F)cc(-n2ncc(-c3ccc(C(=O)NCCNCc4ccccc4)cc3)c2N)n1`, 1070 nM.
`CN1CCN(CCc2ccc3nc(-c4csc(Cc5cc(Cl)ccc5OCc5ccccc5)n4)[nH]c3c2)CC1`: the IC50 was found to be 750 nM.
With `CCCn1cc2c(ccc3nc(N)nc(N)c32)n1` the figure was 80 nM; with `COCc1cccc(-c2cc(-c3ccc(S(C)(=O)=O)cc3)cnc2N)c1`, 1000 nM; with `CCOC(=O)c1c(NC(=O)c2ccccc2)sc2c(O)c(CN(CC)CC)ccc12`, 970 nM.
With `COc1ccc(NC(=O)Nc2cccc(-c3cccc(-c4nc5ccccc5[nH]4)c3)c2)cc1` the figure was 310 nM; with `CC(C)CCN1CCCN(Cc2cccc(C(=O)Nc3ccc(C(C)(C)C)cc3)c2)CC1`, 1100 nM.
For `COc1ccc(C2CC(=O)C3=C(C2)NC(C)=C(C(=O)OC(C)C)C3c2ccccc2F)cc1OC` (configuration not stated) the value was 60 nM; for `Fc1ccc2cc(C=Cc3ccncc3)[nH]c2c1`, 620 nM; for `COc1ccc(OC)c2c1C[C@@H]1NC[C@H]2c2c(OC)ccc(OC)c21`, 970 nM.
The compound `Oc1ccccc1CN1CCCC(COC(c2ccc(F)cc2)c2ccc(F)cc2)C1` (configuration not stated) displayed a 50% inhibitory concentration (IC50) of 780 nM.
Consider `Cc1cccc(Nc2nccc(NCC(O)c3ccc(C(F)(F)F)cc3)n2)c1` (configuration not stated), for which the IC50 is 560 nM.
For `O=C(/C=C/c1ccc(Cl)c(Cl)c1)NCCCCCN1CCC(NC(=O)Nc2ccc(Oc3ccccc3)cc2)C1` (configuration not stated) the value was 590 nM; for `CN1CCN(c2ccnc3ccc(NC(=O)c4ccc(Cl)c(Cl)c4)cc23)CC1`, 710 nM.
In turn, `Cc1cccc2[nH]c(-c3ccc(-c4ccc(CNCCNC(=O)c5ccnn5C)cc4)cc3)nc12` registered an IC50 of 480 nM.
For `CNC(=O)c1cncc(/C=C/c2ccccc2S(N)(=O)=O)c1` the value was 690 nM; for `Cc1cc2nc(-c3ccc(/C=C/C(=O)NCCCc4ccccc4)cc3)[nH]c2cc1C`, 960 nM.
For `COC(=O)c1ccc(CCC(C)NCC(O)c2cccc(Cl)c2)cc1` (configuration not stated) the value was 670 nM; for `Cc1cc(NN=Cc2cccc(F)c2)c2ccc(F)cc2n1`, 230 nM.
For `Cc1ccc(CN2CCCN(Cc3cccc(NC(=O)c4ccc(-c5ccccc5)cc4)c3)CC2)cc1C` the value was 1250 nM; for `O=C(CCN1C(=O)c2ccccc2C1=O)N1CCN(CC=Cc2ccccc2)CC1`, 540 nM; for `CC(C)CNCc1ccc(-c2ccc(CN(CCCN3CCN(C)CC3)C(=O)/C=C/c3ccccc3)cc2)cc1`, 920 nM.
`Oc1ccc(CCNCCCCCCNCCc2ccc(Br)cc2)cc1O` came in with a half-maximal inhibitory concentration (IC50) of 1020 nM.
For `Cc1cc(C(=O)CN2C(=O)NC3(CCOc4ccccc43)C2=O)c(C)n1Cc1ccc(F)cc1` (configuration not stated) the value was 880 nM; for `CS(=O)(=O)Nc1ccc(-c2ccc3ccnc(N)c3c2)cc1`, 610 nM; for `Oc1ccc2c(CNCCc3ccccc3)c(O)ccc2c1CNCCc1ccccc1`, 100 nM.
With `c1ccc(-c2cccnn2)cc1` the figure was 910 nM.
Regarding `CN(C)c1ccc(CN2CCCCC(NC(=O)c3cc(-c4ccccc4F)cs3)C2)cc1` (configuration not stated), the IC50 stood at 830 nM.
`CS(=O)(=O)NCCCNCc1cccc(-c2csc(-c3nc4ccccc4[nH]3)c2)c1` showed a half-maximal inhibitory concentration (IC50) of 1010 nM.
For `O=S(=O)(NCCN1CCCC1)c1ccc(-c2ccc(CNCc3ccccc3)cc2)cc1F` the value was 1290 nM; for `COc1c(C2CCN(CCCCNC(=O)c3ccc(-c4ccc(C(F)(F)F)cc4)c(C(=O)OC(C)C)c3)CC2)ccc2c1CCCC2`, 860 nM.
With `CNC(=O)c1ccc2nc(C3CC3)n(CC3CCN(S(=O)(=O)c4cccc(Cl)c4)CC3)c2c1` the figure was 650 nM; with `O=C(/C=C/c1ccc(Cl)c(Cl)c1)NCCCCCN1CCCC(CCCNC(=O)Nc2ccc(C(F)(F)F)cc2)C1` (configuration not stated), 530 nM; with `COc1ccccc1N1CCN(Cc2c(O)ccc3cc(Br)ccc23)CC1`, 1150 nM.
With `COc1cc(Nc2ncnc3cc(OC)c(OC)cc23)cc([N+](=O)[O-])c1` the figure was 810 nM.
`O=C(Nc1ccc2c(c1)CN(Cc1ccc(N3CCCC3)o1)CCC2)c1ccoc1` came in with an IC50 of 950 nM.
For `CS(=O)(=O)N(c1ccccc1)c1cc(C(=O)N[C@@H](Cc2ccccc2)[C@H](O)CNC2CC2)cc(N2CCCC2=O)c1` the value was 300 nM.
Take `COc1ccc2cc(-c3nc(-c4c(Cl)cccc4Cl)[nH]c3-c3ccnc(NCCCN4CCCCC4C)c3)ccc2c1` (configuration not stated): the IC50 is 950 nM.
With `COCCCn1c(=N)c(C(=O)NCCc2ccc(OC)cc2)cc2c(=O)n3cccc(C)c3nc21` the figure was 1030 nM.
